Source: patent US11787825B2 (priority 2021, dated 2023)

Conditions: 1.0% DMSO, 24-hour incubation at ambient temperature, maximum theoretical compound concentration 100 μM; for pH 2 solubility: 0.1N HCL; for pH 7 solubility: 1×PBS buffer (pH 7.4)

SMILES	pH 2 solubility	pH 7 solubility
CC(C)(C#Cc1ccc(-c2ccc(Cl)c3c(N(C(=O)C[N+](C)(C)C)S(C)(=O)=O)nn(CC(F)(F)F)c23)c([C@H](Cc2cc(F)cc(F)c2)NC(=O)Cn2nc(C(F)(F)F)c3c2C(F)(F)[C@@H]2C[C@H]32)n1)S(C)(=O)=O [Compound 5, 2-(N-(4-chloro-7-(2-((S)-1-(2-((3bS,4aR)-5,5-difluoro (trifluoromethyl)-3b,4,4a,5-tetrahydro-1H-cyclopropa[3,4]cyclopenta[1,2-c]pyrazolyl)acetamido)-2-(3,5-difluorophenyl)ethyl)-6-(3-methyl-3-(methylsulfonyl)but-1-ynyl)pyridin-3-yl)-1-(2,2,2-trifluoroethyl)-1H-indazol-3-yl)methylsulfonamido)-N,N,N-trimethyl-2-oxoethan-1-aminium]	45 μM	6 μM
COC(=O)N[C@@H](C)C(=O)N(c1nn(CC(F)(F)F)c2c(-c3ccc(C#CC(C)(C)S(C)(=O)=O)nc3[C@H](Cc3cc(F)cc(F)c3)NC(=O)Cn3nc(C(F)(F)F)c4c3C(F)(F)[C@@H]3C[C@H]43)ccc(Cl)c12)S(C)(=O)=O [Compound 7, methyl ((5)-1-(N-(4-chloro-7-(2-((S)-1-(2-((3bS,4aR)-5,5-difluoro-3-(trifluoromethyl)-3b,4,4a,5-tetrahydro-1H-cyclopropa[3,4]cyclopenta[1,2-c]pyrazol-1-yl)acetamido)-2-(3,5-difluorophenyl)ethyl)-6-(3-methyl-3-(methylsulfonyl)but-1-yn-1-yl)pyridin-3-yl)-1-(2,2,2-trifluoroethyl)-1H-indazol-3-yl)methylsulfonamido)-1-oxopropan-2-yl)carbamate]	1/1 μM	1/1 μM
CC(C)[C@@H](C(=O)N(c1nn(CC(F)(F)F)c2c(-c3ccc(C#CC(C)(C)S(C)(=O)=O)nc3[C@H](Cc3cc(F)cc(F)c3)NC(=O)Cn3nc(C(F)(F)F)c4c3C(F)(F)[C@@H]3C[C@H]43)ccc(Cl)c12)S(C)(=O)=O)N(C)C [Compound 8, N-(4-chloro-7-(2-((S)-1-(2-((3bS,4aR)-5,5-difluoro-3-(trifluoromethyl)-3b,4,4a,5-tetrahydro-1H-cyclopropa[3,4]cyclopenta[1,2-c]pyrazol-1-yl)acetamido)-2-(3,5-difluorophenyl)ethyl)-6-(3-methyl-3-(methylsulfonyl)but-1-yn-1-yl)pyridin-3-yl)-1-(2,2,2-trifluoroethyl)-1H-indazol-3-yl)-2-(dimethylamino)-3-methyl-N-(methylsulfonyl)butanamide]	51 μM	1 μM
COCCOCCOCCOCCOCC(=O)N(c1nn(CC(F)(F)F)c2c(-c3ccc(C#CC(C)(C)S(C)(=O)=O)nc3[C@H](Cc3cc(F)cc(F)c3)NC(=O)Cn3nc(C(F)(F)F)c4c3C(F)(F)[C@@H]3C[C@H]43)ccc(Cl)c12)S(C)(=O)=O [Compound 9, N-(4-chloro-7-(2-((S)-1-(2-((3bS,4aR)-5,5-difluoro-3-(trifluoromethyl)-3b,4,4a,5-tetrahydro-1H-cyclopropa[3,4]cyclopenta[1,2-c]pyrazol-1-yl)acetamido)-2-(3,5-difluorophenyl)ethyl)-6-(3-methyl-3-(methylsulfonyl)but-1-ynyl)pyridin-3-yl)-1-(2,2,2-trifluoroethyl)-1H-indazol-3-yl)-N-(methylsulfonyl)-2,5,8,11,14-pentaoxahexadecan-16-amide]	1/1 μM	1/1 μM
COC(=O)CCC(=O)N(c1nn(CC(F)(F)F)c2c(-c3ccc(C#CC(C)(C)S(C)(=O)=O)nc3[C@H](Cc3cc(F)cc(F)c3)NC(=O)Cn3nc(C(F)(F)F)c4c3C(F)(F)[C@@H]3C[C@H]43)ccc(Cl)c12)S(C)(=O)=O [Compound 10, methyl 4-(N-(4-chloro-7-(2-((S)-1-(2-((3bS,4aR)-5,5-difluoro-3-(trifluoromethyl)-3b,4,4a,5-tetrahydro-1H-cyclopropa[3,4]cyclopenta[1,2-c]pyrazol-1-yl)acetamido)-2-(3,5-difluorophenyl)ethyl)-6-(3-methyl-3-(methylsulfonyl)but-1-yn-1-yl)pyridin-3-yl)-1-(2,2,2-trifluoroethyl)-1H-indazol-3-yl)methylsulfonamido)-4-oxobutanoate]	1/1 μM	1/1 μM
CC(C)(C#Cc1ccc(-c2ccc(Cl)c3c(N(C(=O)[C@@H](N)CCCCN)S(C)(=O)=O)nn(CC(F)(F)F)c23)c([C@H](Cc2cc(F)cc(F)c2)NC(=O)Cn2nc(C(F)(F)F)c3c2C(F)(F)[C@@H]2C[C@H]32)n1)S(C)(=O)=O [Compound 11, (S)-2,6-diamino-N-(4-chloro-7-(2-((S)-1-(2-((3bS,4aR)-5,5-difluoro-3-(trifluoromethyl)-3b,4,4a,5-tetrahydro-1H-cyclopropa[3,4]cyclopenta[1,2-c]pyrazol-1-yl)acetamido)-2-(3,5-difluorophenyl)ethyl)-6-(3-methyl-3-(methylsulfonyl)but-1-yn-1-yl)pyridin-3-yl)-1-(2,2,2-trifluoroethyl)-1H-indazol-3-yl)-N-(methylsulfonyl)hexanamide]	100 μM	43 μM
CC(C)(C#Cc1ccc(-c2ccc(Cl)c3c(N(C(=O)CN)S(C)(=O)=O)nn(CC(F)(F)F)c23)c([C@H](Cc2cc(F)cc(F)c2)NC(=O)Cn2nc(C(F)(F)F)c3c2C(F)(F)[C@@H]2C[C@H]32)n1)S(C)(=O)=O [Compound 12, 2-amino-N-(4-chloro-7-(2-((S)-1-(2-((3bS,4aR)-5,5-difluoro (trifluoromethyl)-3b,4,4a,5-tetrahydro-1H-cyclopropa[3,4]cyclopenta[1,2-c]pyrazolyl)acetamido)-2-(3,5-difluorophenyl)ethyl)-6-(3-methyl-3-(methylsulfonyl)but-1-ynyl)pyridin-3-yl)-1-(2,2,2-trifluoroethyl)-1H-indazol-3-yl)-N-(methylsulfonyl)acetamide]	65 μM	8 μM
CC(C)(C#Cc1ccc(-c2ccc(Cl)c3c(N(C(=O)CNC(=O)C(=O)O)S(C)(=O)=O)nn(CC(F)(F)F)c23)c([C@H](Cc2cc(F)cc(F)c2)NC(=O)Cn2nc(C(F)(F)F)c3c2C(F)(F)[C@@H]2C[C@H]32)n1)S(C)(=O)=O [Compound 13, 2-((2-(N-(4-chloro-7-(2-((S)-1-(2-((3bS,4aR)-5,5-difluoro-3-(trifluoromethyl)-3b,4,4a,5-tetrahydro-1H-cyclopropa[3,4]cyclopenta[1,2-c]pyrazol-1-yl)acetamido)-2-(3,5-difluorophenyl)ethyl)-6-(3-methyl-3-(methylsulfonyl)but-1-yn-1-yl)pyridin-3-yl)-1-(2,2,2-trifluoroethyl)-1H-indazol-3-yl)methylsulfonamido)-2-oxoethyl)amino)-2-oxoacetic acid]	1 μM	90 μM
CC(C)[C@H](N)C(=O)OCCCCC(=O)N(c1nn(CC(F)(F)F)c2c(-c3ccc(C#CC(C)(C)S(C)(=O)=O)nc3[C@H](Cc3cc(F)cc(F)c3)NC(=O)Cn3nc(C(F)(F)F)c4c3C(F)(F)[C@@H]3C[C@H]43)ccc(Cl)c12)S(C)(=O)=O [Compound 14]	7 μM	1 μM
CC(C)(CC(=O)O)C(=O)N(c1nn(CC(F)(F)F)c2c(-c3ccc(C#CC(C)(C)S(C)(=O)=O)nc3[C@H](Cc3cc(F)cc(F)c3)NC(=O)Cn3nc(C(F)(F)F)c4c3C(F)(F)[C@@H]3C[C@H]43)ccc(Cl)c12)S(C)(=O)=O [Compound 15, 4-(N-(4-chloro-7-(2-((S)-1-(2-((3bS,4aR)-5,5-difluoro-3-(trifluoromethyl)-3b,4,4a,5-tetrahydro-1H-cyclopropa[3,4]cyclopenta[1,2-c]pyrazol-1-yl)acetamido)-2-(3,5-difluorophenyl)ethyl)-6-(3-methyl-3-(methylsulfonyl)but-1-yn-1-yl)pyridin-3-yl)-1-(2,2,2-trifluoroethyl)-1H-indazol-3-yl)methylsulfonamido)-3,3-dimethyl-4-oxobutanoic acid]	1/1 μM	1/1 μM
CN(C)CCCC[C@H](N)C(=O)N(c1nn(CC(F)(F)F)c2c(-c3ccc(C#CC(C)(C)S(C)(=O)=O)nc3[C@H](Cc3cc(F)cc(F)c3)NC(=O)Cn3nc(C(F)(F)F)c4c3C(F)(F)[C@@H]3C[C@H]43)ccc(Cl)c12)S(C)(=O)=O [Compound 16, ((S)-2-amino-N-(4-chloro-7-(2-((S)-1-(2-((3bS,4aR)-5,5-difluoro-3-(trifluoromethyl)-3b,4,4a,5-tetrahydro-1H-cyclopropa[3,4]cyclopenta[1,2-c]pyrazolyl)acetamido)-2-(3,5-difluorophenyl)ethyl)-6-(3-methyl-3-(methylsulfonyl)but-1-ynyl)pyridin-3-yl)-1-(2,2,2-trifluoroethyl)-1H-indazol-3-yl)-6-(dimethylamino)-N-(methylsulfonyl)hexanamide)]	92 μM	20 μM
CNCC(=O)N(c1nn(CC(F)(F)F)c2c(-c3ccc(C#CC(C)(C)S(C)(=O)=O)nc3[C@H](Cc3cc(F)cc(F)c3)NC(=O)Cn3nc(C(F)(F)F)c4c3C(F)(F)[C@@H]3C[C@H]43)ccc(Cl)c12)S(C)(=O)=O [Compound 19, (N-(4-chloro-7-(2-((S)-1-(2-((3bS,4aR)-5,5-difluoro (trifluoromethyl)-3b,4,4a,5-tetrahydro-1H-cyclopropa[3,4]cyclopenta[1,2-c]pyrazolyl)acetamido)-2-(3,5-difluorophenyl)ethyl)-6-(3-methyl-3-(methylsulfonyl)but-1-ynyl)pyridin-3-yl)-1-(2,2,2-trifluoroethyl)-1H-indazol-3-yl)-2-(methylamino)-N-(methylsulfonyl)acetamide)]	37 μM	6 μM
